SMILES strings stand for the structures. Like-named read-outs stand apart in the source and are kept apart here.

Experiment [1] deals with T1, WDR5 (Homo sapiens, UniProt P61964). Description: Surface Plasmon Resonance (SPR) assay. The format is binding. Set-up: Full length WDR5 with an N-terminal His tag and C-terminal AviTag; His tag (N); made in house; host or cells: E. coli. The method, then: Exemplary compounds of the application were dissolved in 100% DMSO at 10 mM, assayed fresh, and then stored at −20° C. for repeat studies and other experiments. Full length WDR5 with an N-terminal His tag and C-terminal AviTag (Avidity Inc.) was expressed in E. coli with coexpression of BirA to biotin label the protein in vivo. Purification was via Ni-NTA.
SPR studies were performed using a Biacore™ T200 instrument (GE Health Sciences Inc.). Biotinylated WDR5 protein (approximately 3000RU) was stably captured to streptavidin coupled SA chips according to the manufacture's protocol (GE Health Sciences Inc.). The running buffer used was HBS-EP (20 mM Hepes pH 7.4, 150 mM NaCl, 3 mM EDTA, 0.05% P-20) plus 5% DMSO with a flow rate of 40 μl/min. For SPR analysis, 5 different concentrations of each exemplary compound of the application were sprayed into 96 or 384 well plates using an HP D300 digital dispenser. The concentration ranged from about 195 nM to about 12 nM in a two-fold series. […] Curve fitting and KD calculations were performed with the Biacore T200 Evalutation software (GE Health Sciences Inc).

A further experiment concerns MV4-11 cells. Description: Cell proliferation assay (ATPlite). It is filed as cell-based. Conditions: Homo sapiens; for EC50: 120 h, MV4-11 cells, five days, read-out: GI MV411 EC50; for IC50: MV4-11, Table 2. The method, then:
MV4-11 cells were seeded into a 96-well plate at 1,000 cells/well in 150 μl medium (Alpha-MEM containing 10% FBS, 100 μg/ml Normocin, and 50 μg/ml Gentamycin, Invitrogen). A HP D300 digital dispenser was used to dose cells with DMSO or test compounds across a 10-point range of concentrations (high dose of 10 μM), and cultures were grown in a humidified 5% CO2 incubator at 37° C. After five days, plates were removed from incubator and equilibrated to room temperature. An equal volume of ATPlite assay reagent was added to each well, and samples were processed according to manufacturer's instructions (Perkin Elmer). Luminescent signal was measured using an Envision plate reader equipped with a US-Luminescence detector.

For experiment [2], the target named is T1, WDR5. Description: Fluorescence Polarization (FP) binding assay. The method, then:
H3 (1-15) ([…]), and 9-Ala-FAM ((Ac)-[…]-(Ahx-Ahx)-K(5,6-FAM)) (where Ahx represents 6 amino hexanoic acid linkers) peptides for WDR5 were synthesized, N-terminal-labeled with isothiocyanate-fluorescein, and purified by Tufts University Core Services (Boston, Mass.). Compound binding assays were performed at a constant labeled peptide concentration of 30 or 20 nM for H3 (1-15) and 9-Ala-FAM respectively. WDR5 concentrations of 0.3 μM for H3 (1-15) and 0.05 μM for 9-Ala-FAM were used. For both the H3 (1-15) and 9-Ala-FAM peptides, 80 mM sodium phosphate buffer (pH 6.5), 20 mM KCl, and 0.008% Triton X-100 was used. For the H3 (1-15) peptide, FP assays were measured in 10 μl aliquots in 384-well Axygen plates using a Synergy 4 microplate reader (BioTek) with an excitation wavelength of 485 nm and emission wavelength of 528 nm. For the 9-Ala-FAM peptide, FP assays were measured in 125 μl aliquots in 96 well Microfluor plates using a ViewLux instrument (Perkin Elmer) with an excitation wavelength of 480 nm and emission wavelength of 540 nm. To determine Kdsp values, the data were fit to a hyperbolic function using Sigma Plot software (Systat Software). The Kdisp values represent the average of quadruplicate measurements.
On the technique in general: In fluorescence polarisation assays a small probe gives low polarisation when free and higher when bound to something large.

What is called Kd is the concentration at which binding is half-saturated. A word on the EC50: it is the concentration that produces a half-maximal response. What is called IC50 is the concentration that inhibits the measured activity by half. For the compound `C[C@H]1CN(c2cc(F)c(-c3cnc(N4C[C@H]5CC[C@@H](C4)O5)nc3)c(F)c2NC(=O)c2c[nH]c(=O)cc2C(F)(F)F)CCN1C` [Example 89, N-(3-(2-((1R,5S)-8-oxa-3-azabicyclo[3.2.1]octan-3-yl)pyrimidin-5-yl)-6-((S)-3,4-dimethylpiperazin-1-yl)-2,4-difluorophenyl)-6-oxo-4-(trifluoromethyl)-1,6-dihydropyridine-3-carboxamide], the Kd at WDR5 [1] (read-out: SPR Kd) was 0.83 nM. The EC50 in the experiment with MV4-11 cells is 30.8 nM. For the same compound, on WDR5 [2], the 50% inhibitory concentration (IC50) amounted to 12.5 nM.
The matching figures for `COc1cc(N2CCC=C(c3c(F)cc(N4CCN(C)[C@@H](C)C4)c(NC(=O)c4c[nH]c(=O)cc4C(F)(F)F)c3F)C2)ncn1` [Example 68, (S)—N-(6-(3,4-dimethylpiperazin-1-yl)-2,4-difluoro-3-(1-(6-methoxypyrimidin-4-yl)-1,2,5,6-tetrahydropyridin-3-yl)phenyl)-6-oxo-4-(trifluoromethyl)-1,6-dihydropyridine-3-carboxamide]: 1.37 nM, 358 nM and 19.5 nM.
Regarding `C[C@@H]1CN(c2cc(F)c(-c3cnc(N4CCOCC4)nc3)c(F)c2NC(=O)c2cn(C)c(=O)cc2C(F)F)C[C@H](C)N1C` [Example 40, N-(2,4-difluoro-3-(2-morpholinopyrimidin-5-yl)-6-((3S,5R)-3,4,5-trimethylpiperazin-1-yl)phenyl)-4-(difluoromethyl)-1-methyl-6-oxo-1,6-dihydropyridine-3-carboxamide], the Kd on WDR5 [1] (read-out: SPR Kd) was determined as 2.85 nM. For the same compound, the half-maximal effective concentration (EC50) in the experiment on MV4-11 cells amounted to 286 nM. The 50% inhibitory concentration (IC50) at WDR5 [2] was 20.1 nM.
The matching figures for `C[C@@H]1CN(c2ccc(-c3c(F)cc(N4C[C@@H](C)N(C)[C@@H](C)C4)c(NC(=O)c4c[nH]c(=O)cc4C(F)F)c3F)cn2)C[C@H](C)O1` [Example 191, 4-(Difluoromethyl)-N-(3-(6-((2S,6R)-2,6-dimethylmorpholino)pyridin-3-yl)-2,4-difluoro-6-((3S,5R)-3,4,5-trimethylpiperazin-1-yl)phenyl)-6-oxo-1,6-dihydropyridine-3-carboxamide]: 1.07 nM, 40.8 nM and 10.7 nM.
For the compound `Cc1sc(-c2c(F)cc(N3CCN(C)[C@@H](C)C3)c(NC(=O)c3ccc(F)cc3C(F)(F)F)c2F)nc1C(=O)N1CCCC1` [Example 154, (S)—N-(6-(3,4-dimethylpiperazin-1-yl)-2,4-difluoro-3-(5-methyl-4-(pyrrolidine-1-carbonyl)thiazol-2-yl)phenyl)-4-fluoro-2-(trifluoromethyl)benzamide], on WDR5 [1] (read-out: SPR Kd), the dissociation constant Kd worked out at 0.64 nM. For the same compound, the EC50 with MV4-11 cells stood at 92 nM. Also, the IC50 at WDR5 [2] was 11.4 nM.
The matching figures for `CC(C)[C@@H]1CN(c2nccc(-c3c(F)cc(N4CCN(C)[C@@H](C)C4)c(NC(=O)c4c[nH]c(=O)cc4C(F)(F)F)c3F)n2)CCO1` [Example 123, N-(6-((S)-3,4-dimethylpiperazin-1-yl)-2,4-difluoro-3-(2-((R)-2-isopropylmorpholino)pyrimidin-4-yl)phenyl)-6-oxo-4-(trifluoromethyl)-1,6-dihydropyridine-3-carboxamide]: 1.68 nM, 61.8 nM and 14.9 nM.
Take `CC(C)[C@@H]1CN(c2ncc(-c3c(F)cc(N4CCN(C)[C@@H](C)C4)c(NC(=O)c4c[nH]c(=O)cc4C(F)F)c3F)cn2)CCO1` [Example 117, 4-(Difluoromethyl)-N-(6-((S)-3,4-dimethylpiperazin-1-yl)-2,4-difluoro-3-(2-((R)-2-isopropylmorpholino)pyrimidin-5-yl)phenyl)-6-oxo-1,6-dihydropyridine-3-carboxamide]: the dissociation constant (Kd) at WDR5 [1] (read-out: SPR Kd) came to 0.84 nM. In the experiment on MV4-11 cells, the EC50 stood at 28.2 nM. Further, the half-maximal inhibitory concentration (IC50) on WDR5 [2] worked out at 13.6 nM.
The matching figures for `C[C@H]1CN(c2cc(F)c(C3=CCCN(C(=O)OC4CC(F)(F)C4)C3)c(F)c2NC(=O)c2c[nH]c(=O)cc2C(F)F)CCN1C` [Example 43, 3,3-Difluorocyclobutyl (S)-5-(3-(4-(difluoromethyl)-6-oxo-1,6-dihydropyridine-3-carboxamido)-4-(3,4-dimethylpiperazin-1-yl)-2,6-difluorophenyl)-3,6-dihydropyridine-1(2H)-carboxylate]: 1.7 nM, 653 nM and 15.9 nM.
On to `C[C@H]1CN(c2cc(F)c(C3=CCN(C(=O)OC4CC(F)(F)C4)C3)c(F)c2NC(=O)c2c[nH]c(=O)cc2C(F)F)CCN1C` [Example 44], for which the Kd on WDR5 [1] (read-out: SPR Kd) is 2.32 nM. The EC50 with MV4-11 cells was found to be 180 nM. In addition, the half-maximal inhibitory concentration (IC50) on WDR5 [2] was 14.4 nM.
The matching figures for `C[C@@H]1CN(c2cc(F)c(C3=CCN(c4ncc(F)cn4)CC3)c(F)c2NC(=O)c2c[nH]c(=O)cc2C(F)(F)F)C[C@H](C)N1C` [Example 145, N-(2,4-difluoro-3-(1-(5-fluoropyrimidin-2-yl)-1,2,3,6-tetrahydropyridin-4-yl)-6-((3S,5R)-3,4,5-trimethylpiperazin-1-yl)phenyl)-6-oxo-4-(trifluoromethyl)-1,6-dihydropyridine-3-carboxamide]: 0.84 nM, 58.9 nM and 13.9 nM.
For `CC(C)[C@H]1CN(c2ncc(-c3c(F)cc(N4C[C@@H](C)N(C)[C@@H](C)C4)c(NC(=O)c4c[nH]c(=O)cc4C(F)F)c3F)cn2)CCO1` [Example 122, N-(2,4-Difluoro-3-(2-((S)-2-isopropylmorpholino)pyrimidin-5-yl)-6-((3S,5R)-3,4,5-trimethylpiperazin-1-yl)phenyl)-4-(difluoromethyl)-6-oxo-1,6-dihydropyridine-3-carboxamide] the same measures were 1.98 nM, 22.1 nM and 12.5 nM.
For `C[C@H]1CN(c2cc(F)c(C3=CCCN(c4ncc(F)cn4)C3)c(F)c2NC(=O)c2c[nH]c(=O)cc2C(F)(F)F)CCN1C` [Example 84, (S)—N-(6-(3,4-dimethylpiperazin-1-yl)-2,4-difluoro-3-(1-(5-fluoropyrimidin-2-yl)-1,2,5,6-tetrahydropyridin-3-yl)phenyl)-6-oxo-4-(trifluoromethyl)-1,6-dihydropyridine-3-carboxamide] the same measures were 1.43 nM, 162 nM and 16.4 nM.
For the compound `C[C@@H]1CN(c2ccc(-c3c(F)cc(N4C[C@@H](C)N(C)[C@@H](C)C4)c(NC(=O)c4c[nH]c(=O)cc4C(F)(F)F)c3F)cn2)C[C@H](C)O1` [Example 62, N-(3-(6-((2S,6R)-2,6-dimethylmorpholino)pyridin-3-yl)-2,4-difluoro-6-((3S,5R)-3,4,5-trimethylpiperazin-1-yl)phenyl)-6-oxo-4-(trifluoromethyl)-1,6-dihydropyridine-3-carboxamide], at WDR5 [1] (read-out: SPR Kd), the Kd was determined as 2.14 nM. In addition, the half-maximal effective concentration (EC50) in the experiment on MV4-11 cells came to 24.9 nM. Moreover, the half-maximal inhibitory concentration (IC50) at WDR5 [2] is 14.4 nM.
With `C[C@@H]1CN(c2c(F)cc(-c3cnc(N4CCOCC4)nc3)cc2NC(=O)c2c[nH]c(=O)cc2C(F)(F)F)C[C@H](C)N1C` [reference compound], the dissociation constant (Kd) on WDR5 [1] (Table 2, effect of difluoro substitution, read-out: KD (SPR)) was 77 nM. The IC50 in the experiment with MV4-11 cells was 3540 nM.
Compound `C[C@@H]1CN(c2cc(F)c(-c3cnc(N4CCOCC4)nc3)cc2NC(=O)c2c[nH]c(=O)cc2C(F)(F)F)C[C@H](C)N1C` [reference compound] gave an IC50 in the experiment on MV4-11 cells of 25 nM.
Consider `C[C@@H]1CN(c2cc(F)c(-c3cnc(N4CCO[C@@H](C)C4)nc3)c(F)c2NC(=O)c2ccc(F)cc2C(F)(F)F)C[C@H](C)N1C` [Example 16, N-(2,4-difluoro-3-(2-((S)-2-methylmorpholino)pyrimidin-5-yl)-6-((3S,5R)-3,4,5-trimethylpiperazin-1-yl)phenyl)-4-fluoro-2-(trifluoromethyl)benzamide formic acid], for which the Kd on WDR5 [1] (read-out: SPR Kd) was determined as 1.22 nM. At WDR5 [2], the half-maximal inhibitory concentration (IC50) is 6.99 nM.

These data come from US20200385371A1 (Propellon Therapeutics Inc., priority 2017, published 2020).
